From patent US20130177609A1, “Compositions and Methods for Increasing Bioavailability of Topical Ophthalmic Drugs” (priority 2008, published 2013)

Assay: Example 1: ocular tissue pharmacokinetics after topical dose, increasing dose volume at constant drug concentration
Type: in vivo, pigmented male rabbits (Dutch Belted)
Details: for AUC(0-t) / DNAUC / Cmax / Tmax: topical ocular; for Cmax / Tmax: male, Dutch Belted, rabbit, topical or ocular
Method: An aqueous suspension comprising 0.1 mg/mL of the compound having Formula III (BOL-303242-X), 100 mg/mL PEG 3350, and 10 mg/mL Tween® 80 was prepared substantially as disclosed above.
This study was carried out using a non-crossover design and a total of 84 naive pigmented male rabbits (Dutch Belted). Each rabbit was arbitrarily assigned to one of three dose groups.
On the day of dosing, each animal received a topical ocular dose of the suspension. Animals in Group 1 received a […] instillation, Group 2 received a 30-μL instillation and Group 3 received a 100-μL instillation. The target dose levels for these groups were 1, 3 and 10 μg/eye, respectively. The test composition was shipped to the test site as a ready-to-use suspension.
At predetermined time intervals after dosing, rabbits (four per collection time) were euthanized and the eyes enucleated and dissected. Samples of tear, conjunctiva, cornea, aqueous humor and iris/ciliary body were obtained from each animal and frozen until being shipped on dry ice to the analytical laboratory. Samples were collected at 0.0833, 0.25, 0.5, 1, 2, 4 and 6 hour after dosing. Concentrations of BOL-303242-X in ocular tissue samples were determined by LC/MS/MS. One or more samples of each tissue had concentrations that were below the lower limit of quantitation (“LLQ”). These samples were assigned a value of 0.5 times the LLQ for the purpose of calculating a mean concentration for pharmacokinetic (“PK”) analysis. In addition, the BOL-303242-X concentration measured in one tear sample collected at 6 hour was more than 100-fold higher than any other 6-hour sample for the same dose group. This value was considered to be an outlier, and was not included in any calculations.
Non-compartmental methods were used for pharmacokinetic analysis of concentration versus time data (WinNonlin version 5.2). Due to the destructive sampling regimen employed in this study average composite data were used in the PK analysis.

[1] = Conjunctiva, 10 μL of 0.1 mg/mL suspension (1 μg)
[2] = Conjunctiva, 30 μL of 0.1 mg/mL suspension (3 μg)
[3] = Conjunctiva, 100 μL of 0.1 mg/mL suspension (10 μg)
[4] = Cornea, 10 μL of 0.1 mg/mL suspension (1 μg)
[5] = Cornea, 30 μL of 0.1 mg/mL suspension (3 μg)
[6] = Cornea, 100 μL of 0.1 mg/mL suspension (10 μg)
[7] = Iris/Ciliary Body, 10 μL of 0.1 mg/mL suspension (1 μg)
[8] = Iris/Ciliary Body, 30 μL of 0.1 mg/mL suspension (3 μg)
[9] = Iris/Ciliary Body, 100 μL of 0.1 mg/mL suspension (10 μg)
[10] = Tear, 10 μL of 0.1 mg/mL suspension (1 μg)
[11] = Tear, 30 μL of 0.1 mg/mL suspension (3 μg)
[12] = Tear, 100 μL of 0.1 mg/mL suspension (10 μg)
[13] = 1 ug, Conjunctiva, 10 μL of 0.1 mg/mL suspension (1 μg)
[14] = 1 ug, Cornea, 10 μL of 0.1 mg/mL suspension (1 μg)
[15] = 1 ug, Iris/Ciliary Body, 10 μL of 0.1 mg/mL suspension (1 μg)
[16] = 1 ug, Tear, 10 μL of 0.1 mg/mL suspension (1 μg)
[17] = 3 ug, Conjunctiva, 30 μL of 0.1 mg/mL suspension (3 μg)
[18] = 3 ug, Cornea, 30 μL of 0.1 mg/mL suspension (3 μg)
[19] = 3 ug, Iris/Ciliary Body, 30 μL of 0.1 mg/mL suspension (3 μg)
[20] = 3 ug, Tear, 30 μL of 0.1 mg/mL suspension (3 μg)
[21] = 10 ug, Conjunctiva, 100 μL of 0.1 mg/mL suspension (10 μg)
[22] = 10 ug, Cornea, 100 μL of 0.1 mg/mL suspension (10 μg)
[23] = 10 ug, Iris/Ciliary Body, 100 μL of 0.1 mg/mL suspension (10 μg)
[24] = 10 ug, Tear, 100 μL of 0.1 mg/mL suspension (10 μg)

AUC(0-t) [1]: 245 ng·h/g
DNAUC [1]: 245 ng*hr/g ÷ μg dose
AUC(0-t) [2]: 487 ng·h/g
DNAUC [2]: 162 ng*hr/g ÷ μg dose
AUC(0-t) [3]: 741 ng·h/g
DNAUC [3]: 74.1 ng*hr/g ÷ μg dose
AUC(0-t) [4]: 270 ng·h/g
DNAUC [4]: 270 ng*hr/g ÷ μg dose
AUC(0-t) [5]: 634 ng·h/g
DNAUC [5]: 211 ng*hr/g ÷ μg dose
AUC(0-t) [6]: 955 ng·h/g
DNAUC [6]: 95.5 ng*hr/g ÷ μg dose
AUC(0-t) [7]: 32.0 ng·h/g
DNAUC [7]: 32.0 ng*hr/g ÷ μg dose
AUC(0-t) [8]: 33.8 ng·h/g
DNAUC [8]: 11.3 ng*hr/g ÷ μg dose
AUC(0-t) [9]: 30.5 ng·h/g
DNAUC [9]: 3.05 ng*hr/g ÷ μg dose
AUC(0-t) [10]: 8870 ng·h/g
DNAUC [10]: 8870 ng*hr/g ÷ μg dose
AUC(0-t) [11]: 12600 ng·h/g
DNAUC [11]: 4200 ng*hr/g ÷ μg dose
AUC(0-t) [12]: 25600 ng·h/g
DNAUC [12]: 2560 ng*hr/g ÷ μg dose
Cmax (1 ug, Aqueous Humor, 10 μL of 0.1 mg/mL suspension (1 μg)): < 1 ng/mL
Cmax [13]: 292 ± 137 ng/g
Tmax [13]: 4.98 min
Cmax [14]: 288 ± 116 ng/g
Tmax [14]: 15 min
Cmax [15]: 19.6 ± 29.8 ng/g
Tmax [15]: 60 min
Cmax [16]: 16300 ± 7000 ng/g
Tmax [16]: 4.98 min
Cmax (3 ug, Aqueous Humor, 30 μL of 0.1 mg/mL suspension (3 μg)): < 1 ng/mL
Cmax [17]: 684 ± 446 ng/g
Tmax [17]: 4.98 min
Cmax [18]: 716 ± 234 ng/g
Tmax [18]: 4.98 min
Cmax [19]: 13.1 ± 19 ng/g
Tmax [19]: 120 min
Cmax [20]: 28100 ± 11300 ng/g
Tmax [20]: 15 min
Cmax (10 ug, Aqueous Humor, 100 μL of 0.1 mg/mL suspension (10 μg)): < 1 ng/mL
Cmax [21]: 1050 ± 531 ng/g
Tmax [21]: 4.98 min
Cmax [22]: 955 ± 619 ng/g
Tmax [22]: 4.98 min
Cmax [23]: 11.3 ± 8.05 ng/g
Tmax [23]: 60 min
Cmax [24]: 36700 ± 21400 ng/g
Tmax [24]: 15 min
Compound: Cc1ccc2c(NCC(O)(CC(C)(C)c3cc(F)cc4c3OCC4)C(F)(F)F)cccc2n1 (stereo not shown) [BOL-303242-X]
increase in exposure with increasing instillation volume (tear, cornea and conjunctiva, 10, 30, 100 μL of 0.1 mg/mL): less than proportional to the administered dose/volume
